Assay results published in publication PMC4620497 (Scientific Reports, 2015).

Experiments:
[1] = target: T1, PAK4 (Homo sapiens, UniProt O96013); design: method as in earlier work; conditions: Table S1; cited from earlier work
T1 construct: DNA tag (qPCR read-out); purchased Ambit Biosciences (KINOMEscan service)

[2] = target: T2, ERK3 (Homo sapiens, UniProt Q16659); experiment: KINOMEscan panel screen; format: binding; conditions: read-out: Percent Control(%)
T2 construct: purchased DiscoveRx KINOMEscan (Ambit Biosciences)

[3] = target: T3, MST2 (Homo sapiens, UniProt Q13188); experiment: KINOMEscan panel screen; format: binding; conditions: read-out: Percent Control(%)
T3 construct: purchased DiscoveRx KINOMEscan (Ambit Biosciences)

[4] = target: T4, TEC (Homo sapiens, UniProt P42680); experiment: KINOMEscan panel screen; format: binding; conditions: read-out: Percent Control(%)
T4 construct: purchased DiscoveRx KINOMEscan (Ambit Biosciences)

[5] = target: T5, TGFBR1 (Homo sapiens, UniProt P36897); experiment: KINOMEscan kinase binding assay (Kd)
T5 construct: DNA tag (qPCR read-out); purchased Ambit Biosciences (KINOMEscan service)

[6] = target: T6, CSNK1A1L (Homo sapiens, UniProt Q8N752); experiment: KINOMEscan panel screen; format: binding; conditions: read-out: Percent Control(%)
T6 construct: purchased DiscoveRx KINOMEscan (Ambit Biosciences)

[7] = target: T7, PHKG1 (Homo sapiens, UniProt Q16816); experiment: KINOMEscan panel screen; format: binding; conditions: read-out: Percent Control(%)
T7 construct: purchased DiscoveRx KINOMEscan (Ambit Biosciences)

[8] = target: T8, BRSK1 (Homo sapiens, UniProt Q8TDC3); experiment: KINOMEscan panel screen; format: binding; conditions: read-out: Percent Control(%)
T8 construct: purchased DiscoveRx KINOMEscan (Ambit Biosciences)

[9] = target: ERBB2 (Homo sapiens, UniProt P04626); experiment: KINOMEscan kinase binding assay (Kd)
[10] = target: T9, WEE1 (Homo sapiens, UniProt P30291); experiment: KINOMEscan panel screen; format: binding; conditions: read-out: Percent Control(%)
T9 construct: purchased DiscoveRx KINOMEscan (Ambit Biosciences)

[11] = target: T10, MST1R (Homo sapiens, UniProt Q04912); experiment: KINOMEscan panel screen; format: binding; conditions: read-out: Percent Control(%)
T10 construct: purchased DiscoveRx KINOMEscan (Ambit Biosciences)

[12] = target: T11, PAK6 (Homo sapiens, UniProt Q9NQU5); experiment: KINOMEscan panel screen; format: binding; conditions: read-out: Percent Control(%)
T11 construct: purchased DiscoveRx KINOMEscan (Ambit Biosciences)

[13] = target: T12, MINK (Homo sapiens, UniProt Q8N4C8); experiment: KINOMEscan panel screen; format: binding; conditions: read-out: Percent Control(%)
T12 construct: purchased DiscoveRx KINOMEscan (Ambit Biosciences)

[14] = system: β-catenin target genes in primary AML cells; experiment: Real-time qPCR of β-catenin target genes in primary AML cells; format: cell-based, human
Text: To confirm the Wnt/β-catenin inhibition effect of SKLB-677, we examined the protein levels of total β-catenin and non-phospho-β-catenin (active β-catenin); the non-phospho β-catenin other than the phosphorylated β-catenin enters the cell nucleus and plays the gene regulation function. […] We further examined the expressions of β-catenin target genes MYC, CCND1, and NKD1 by real-time qPCR. […] Finally, the real-time qPCR assays were used again to inspect the influence of SKLB-677 on Wnt/β-catenin signaling in the primary AML cells.
Total RNA of cell samples and tumor samples was extracted using RNAsimple total RNA kit (TIANGEN) according to the manufacturer’s instructions. cDNA was generated using the iScript^TMcDNA Synthesis Kit (Bio-Rad), and the RT-PCR reactions were performed using SsoAdvanced SYBR Green Supermix (Bio-Rad). The reaction consisted of 40 cycles of denaturation at 95 °C for 5 s and annealing/extension for 30s at 60 °C. The primer sequences are listed in Supplementary Table S7.

[15] = target: T13, TRKB (Homo sapiens, UniProt Q16620); experiment: KINOMEscan panel screen; format: binding; conditions: read-out: Percent Control(%)
T13 construct: purchased DiscoveRx KINOMEscan (Ambit Biosciences)

[16] = target: T14, WNK1 (Homo sapiens, UniProt Q9H4A3); experiment: KINOMEscan panel screen; format: binding; conditions: read-out: Percent Control(%)
T14 construct: purchased DiscoveRx KINOMEscan (Ambit Biosciences)

[17] = target: T15, DDR2 (Homo sapiens, UniProt Q16832); experiment: KINOMEscan panel screen; format: binding; conditions: read-out: Percent Control(%)
T15 construct: purchased DiscoveRx KINOMEscan (Ambit Biosciences)

[18] = target: T16, RET(M918T) (Homo sapiens, UniProt P07949, M918T); experiment: KINOMEscan panel screen; format: binding; conditions: read-out: Percent Control(%)
T16 construct: purchased DiscoveRx KINOMEscan (Ambit Biosciences)

[19] = target: T17, CDKL2 (Homo sapiens, UniProt Q92772); experiment: KINOMEscan panel screen; format: binding; conditions: read-out: Percent Control(%)
T17 construct: purchased DiscoveRx KINOMEscan (Ambit Biosciences)

[20] = target: T18, EPHA4 (Homo sapiens, UniProt P54764); experiment: KINOMEscan panel screen; format: binding; conditions: read-out: Percent Control(%)
T18 construct: purchased DiscoveRx KINOMEscan (Ambit Biosciences)

[21] = target: T19, VEGFR2 (Homo sapiens, UniProt P35968); experiment: KINOMEscan panel screen; format: binding; conditions: read-out: Percent Control(%)
T19 construct: DNA tag (qPCR read-out); purchased Ambit Biosciences (KINOMEscan service)

[22] = target: T20, YANK2 (Homo sapiens, UniProt Q9NY57); experiment: KINOMEscan panel screen; format: binding; conditions: read-out: Percent Control(%)
T20 construct: purchased DiscoveRx KINOMEscan (Ambit Biosciences)

[23] = target: T21, ALK(L1196M) (Homo sapiens, UniProt Q9UM73, L1196M); experiment: KINOMEscan panel screen; format: binding; conditions: read-out: Percent Control(%)
T21 construct: purchased DiscoveRx KINOMEscan (Ambit Biosciences)

[24] = target: T22, EPHA6 (Homo sapiens, UniProt Q9UF33); experiment: KINOMEscan panel screen; format: binding; conditions: read-out: Percent Control(%)
T22 construct: purchased DiscoveRx KINOMEscan (Ambit Biosciences)

[25] = target: T23, RIPK1 (Homo sapiens, UniProt Q13546); experiment: KINOMEscan panel screen; format: binding; conditions: read-out: Percent Control(%)
T23 construct: purchased DiscoveRx KINOMEscan (Ambit Biosciences)

[26] = target: T24, JAK1(JH1domain-catalytic) (Homo sapiens, UniProt P23458); experiment: KINOMEscan panel screen; format: binding; conditions: read-out: Percent Control(%)
T24 construct: JAK1(JH1domain-catalytic); purchased DiscoveRx KINOMEscan (Ambit Biosciences)

[27] = target: T25, MST3 (Homo sapiens, UniProt Q9Y6E0); experiment: KINOMEscan panel screen; format: binding; conditions: read-out: Percent Control(%)
T25 construct: purchased DiscoveRx KINOMEscan (Ambit Biosciences)

[28] = target: T26, MLK3 (Homo sapiens, UniProt Q16584); experiment: KINOMEscan panel screen; format: binding; conditions: read-out: Percent Control(%)
T26 construct: purchased DiscoveRx KINOMEscan (Ambit Biosciences)

[29] = target: T27, FGFR1 (Homo sapiens, UniProt P11362); experiment: KINOMEscan panel screen; format: binding; conditions: read-out: Percent Control(%)
T27 construct: purchased DiscoveRx KINOMEscan (Ambit Biosciences)

[30] = target: T28, FGFR2 (Homo sapiens, UniProt P21802); experiment: KINOMEscan panel screen; format: binding; conditions: read-out: Percent Control(%)
T28 construct: purchased DiscoveRx KINOMEscan (Ambit Biosciences)

[31] = target: T29, SRPK2 (Homo sapiens, UniProt P78362); experiment: KINOMEscan panel screen; format: binding; conditions: read-out: Percent Control(%)
T29 construct: purchased DiscoveRx KINOMEscan (Ambit Biosciences)

[32] = target: T30, ACVR1B (Homo sapiens, UniProt P36896); experiment: KINOMEscan panel screen; format: binding; conditions: read-out: Percent Control(%)
T30 construct: purchased DiscoveRx KINOMEscan (Ambit Biosciences)

[33] = target: T31, NEK7 (Homo sapiens, UniProt Q8TDX7); experiment: KINOMEscan panel screen; format: binding; conditions: read-out: Percent Control(%)
T31 construct: purchased DiscoveRx KINOMEscan (Ambit Biosciences)

[34] = target: T32, CAMK1 (Homo sapiens, UniProt Q14012); experiment: KINOMEscan panel screen; format: binding; conditions: read-out: Percent Control(%)
T32 construct: purchased DiscoveRx KINOMEscan (Ambit Biosciences)

[35] = target: T33, HIPK1 (Homo sapiens, UniProt Q86Z02); experiment: KINOMEscan panel screen; format: binding; conditions: read-out: Percent Control(%)
T33 construct: purchased DiscoveRx KINOMEscan (Ambit Biosciences)

[36] = target: T34, TLK1 (Homo sapiens, UniProt Q9UKI8); experiment: KINOMEscan panel screen; format: binding; conditions: read-out: Percent Control(%)
T34 construct: purchased DiscoveRx KINOMEscan (Ambit Biosciences)

[37] = target: T35, DAPK3 (Homo sapiens, UniProt O43293); experiment: KINOMEscan panel screen; format: binding; conditions: read-out: Percent Control(%)
T35 construct: purchased DiscoveRx KINOMEscan (Ambit Biosciences)

T22 sequence (Q9UF33 23-1036): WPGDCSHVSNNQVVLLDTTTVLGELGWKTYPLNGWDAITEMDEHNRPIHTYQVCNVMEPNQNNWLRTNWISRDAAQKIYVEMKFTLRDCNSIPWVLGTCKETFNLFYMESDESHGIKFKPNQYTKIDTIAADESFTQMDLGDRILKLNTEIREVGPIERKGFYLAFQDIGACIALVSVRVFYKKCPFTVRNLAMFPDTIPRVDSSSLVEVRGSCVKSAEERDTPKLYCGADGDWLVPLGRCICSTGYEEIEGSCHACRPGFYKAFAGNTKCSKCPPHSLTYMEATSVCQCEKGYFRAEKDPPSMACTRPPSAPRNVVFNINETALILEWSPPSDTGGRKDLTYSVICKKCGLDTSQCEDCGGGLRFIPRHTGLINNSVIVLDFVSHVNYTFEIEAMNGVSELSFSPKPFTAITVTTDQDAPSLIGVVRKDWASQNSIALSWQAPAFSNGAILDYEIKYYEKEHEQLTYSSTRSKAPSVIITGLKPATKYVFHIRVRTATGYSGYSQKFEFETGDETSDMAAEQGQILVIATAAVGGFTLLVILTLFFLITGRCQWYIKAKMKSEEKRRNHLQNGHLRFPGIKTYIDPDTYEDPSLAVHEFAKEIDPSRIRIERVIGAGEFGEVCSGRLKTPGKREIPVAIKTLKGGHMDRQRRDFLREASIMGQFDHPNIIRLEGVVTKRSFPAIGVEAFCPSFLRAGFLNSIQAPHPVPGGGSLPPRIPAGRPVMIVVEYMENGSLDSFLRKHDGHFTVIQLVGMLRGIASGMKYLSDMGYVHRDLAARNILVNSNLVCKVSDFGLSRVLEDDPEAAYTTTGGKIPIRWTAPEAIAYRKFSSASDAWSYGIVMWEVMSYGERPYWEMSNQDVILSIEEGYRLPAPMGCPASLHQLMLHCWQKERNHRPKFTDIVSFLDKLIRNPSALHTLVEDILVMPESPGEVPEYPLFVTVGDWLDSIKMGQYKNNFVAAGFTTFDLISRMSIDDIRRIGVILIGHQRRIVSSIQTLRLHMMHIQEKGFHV
T25 sequence (Q9Y6E0 whole entry): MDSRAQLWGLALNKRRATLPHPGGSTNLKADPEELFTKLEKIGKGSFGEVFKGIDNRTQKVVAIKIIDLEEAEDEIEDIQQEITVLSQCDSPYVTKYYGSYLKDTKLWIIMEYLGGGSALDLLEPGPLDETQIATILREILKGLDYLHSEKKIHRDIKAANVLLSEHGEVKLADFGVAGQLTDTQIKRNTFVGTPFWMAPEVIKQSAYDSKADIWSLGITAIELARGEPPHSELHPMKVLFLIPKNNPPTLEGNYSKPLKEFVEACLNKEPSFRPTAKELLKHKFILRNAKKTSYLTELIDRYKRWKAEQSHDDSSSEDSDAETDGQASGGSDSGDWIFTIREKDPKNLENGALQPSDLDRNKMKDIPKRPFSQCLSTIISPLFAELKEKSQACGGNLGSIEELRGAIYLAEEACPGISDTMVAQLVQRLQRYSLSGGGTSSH
T33 sequence (Q86Z02 whole entry): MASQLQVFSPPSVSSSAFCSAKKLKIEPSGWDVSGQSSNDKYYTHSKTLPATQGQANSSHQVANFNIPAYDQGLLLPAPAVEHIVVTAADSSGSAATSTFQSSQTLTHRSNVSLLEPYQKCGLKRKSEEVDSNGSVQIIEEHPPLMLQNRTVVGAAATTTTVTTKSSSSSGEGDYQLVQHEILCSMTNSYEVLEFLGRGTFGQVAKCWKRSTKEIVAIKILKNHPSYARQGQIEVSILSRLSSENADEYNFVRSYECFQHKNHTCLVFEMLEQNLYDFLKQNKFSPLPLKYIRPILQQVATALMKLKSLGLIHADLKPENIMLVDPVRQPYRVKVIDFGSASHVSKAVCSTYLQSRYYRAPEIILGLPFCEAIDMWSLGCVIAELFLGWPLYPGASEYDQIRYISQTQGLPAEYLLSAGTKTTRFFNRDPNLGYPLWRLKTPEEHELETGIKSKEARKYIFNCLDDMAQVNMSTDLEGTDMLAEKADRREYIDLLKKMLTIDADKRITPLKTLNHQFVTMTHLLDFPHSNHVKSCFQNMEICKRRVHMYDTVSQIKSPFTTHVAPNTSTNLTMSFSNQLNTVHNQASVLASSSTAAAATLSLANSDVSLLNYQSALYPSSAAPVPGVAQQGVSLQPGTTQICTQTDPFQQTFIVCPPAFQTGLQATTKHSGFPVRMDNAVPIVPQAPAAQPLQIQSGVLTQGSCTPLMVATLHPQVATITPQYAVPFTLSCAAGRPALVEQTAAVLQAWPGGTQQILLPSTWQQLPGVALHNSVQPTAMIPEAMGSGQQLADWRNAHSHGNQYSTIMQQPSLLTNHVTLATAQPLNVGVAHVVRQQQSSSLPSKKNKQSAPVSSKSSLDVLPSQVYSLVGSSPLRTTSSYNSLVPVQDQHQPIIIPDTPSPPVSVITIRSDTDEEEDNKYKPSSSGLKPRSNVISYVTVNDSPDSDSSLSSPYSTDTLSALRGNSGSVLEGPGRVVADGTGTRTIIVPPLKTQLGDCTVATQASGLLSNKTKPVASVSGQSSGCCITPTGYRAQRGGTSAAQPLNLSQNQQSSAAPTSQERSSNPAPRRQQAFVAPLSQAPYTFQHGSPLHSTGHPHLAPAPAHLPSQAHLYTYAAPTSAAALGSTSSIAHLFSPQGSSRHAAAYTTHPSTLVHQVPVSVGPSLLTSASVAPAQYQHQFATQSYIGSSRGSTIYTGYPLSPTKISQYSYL
T15 sequence (Q16832 22-855): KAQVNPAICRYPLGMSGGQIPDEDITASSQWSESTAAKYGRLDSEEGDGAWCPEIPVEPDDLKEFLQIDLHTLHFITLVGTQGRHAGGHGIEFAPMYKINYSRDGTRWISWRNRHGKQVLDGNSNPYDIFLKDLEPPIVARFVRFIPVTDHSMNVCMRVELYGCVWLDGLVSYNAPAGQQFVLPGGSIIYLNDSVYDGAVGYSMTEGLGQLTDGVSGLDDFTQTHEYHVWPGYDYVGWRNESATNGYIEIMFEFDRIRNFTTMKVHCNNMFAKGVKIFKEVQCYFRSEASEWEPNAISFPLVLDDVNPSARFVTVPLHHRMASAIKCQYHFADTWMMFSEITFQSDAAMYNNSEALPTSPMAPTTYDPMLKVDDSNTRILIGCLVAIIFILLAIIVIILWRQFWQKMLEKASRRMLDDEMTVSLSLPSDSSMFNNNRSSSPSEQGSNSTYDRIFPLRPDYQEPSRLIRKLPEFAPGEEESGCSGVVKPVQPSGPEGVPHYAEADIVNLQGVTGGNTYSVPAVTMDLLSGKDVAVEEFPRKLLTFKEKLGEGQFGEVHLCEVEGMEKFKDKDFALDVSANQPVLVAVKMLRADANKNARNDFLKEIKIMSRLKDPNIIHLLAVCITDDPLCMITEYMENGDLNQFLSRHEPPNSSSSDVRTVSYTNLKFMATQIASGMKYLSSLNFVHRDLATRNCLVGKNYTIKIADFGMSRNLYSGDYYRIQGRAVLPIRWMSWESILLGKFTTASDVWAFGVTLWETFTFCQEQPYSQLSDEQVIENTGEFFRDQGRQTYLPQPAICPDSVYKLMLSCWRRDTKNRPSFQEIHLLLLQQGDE
T6 sequence (Q8N752 whole entry): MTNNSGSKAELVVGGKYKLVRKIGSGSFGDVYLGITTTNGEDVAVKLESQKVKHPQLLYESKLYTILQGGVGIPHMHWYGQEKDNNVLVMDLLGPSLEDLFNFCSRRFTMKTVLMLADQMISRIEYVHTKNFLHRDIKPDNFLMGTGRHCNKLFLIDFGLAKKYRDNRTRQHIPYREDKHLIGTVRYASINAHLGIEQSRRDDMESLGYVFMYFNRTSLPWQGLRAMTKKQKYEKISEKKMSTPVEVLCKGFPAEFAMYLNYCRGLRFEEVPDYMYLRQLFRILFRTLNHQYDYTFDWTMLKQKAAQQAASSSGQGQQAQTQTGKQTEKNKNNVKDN
T27 sequence (P11362 22-822): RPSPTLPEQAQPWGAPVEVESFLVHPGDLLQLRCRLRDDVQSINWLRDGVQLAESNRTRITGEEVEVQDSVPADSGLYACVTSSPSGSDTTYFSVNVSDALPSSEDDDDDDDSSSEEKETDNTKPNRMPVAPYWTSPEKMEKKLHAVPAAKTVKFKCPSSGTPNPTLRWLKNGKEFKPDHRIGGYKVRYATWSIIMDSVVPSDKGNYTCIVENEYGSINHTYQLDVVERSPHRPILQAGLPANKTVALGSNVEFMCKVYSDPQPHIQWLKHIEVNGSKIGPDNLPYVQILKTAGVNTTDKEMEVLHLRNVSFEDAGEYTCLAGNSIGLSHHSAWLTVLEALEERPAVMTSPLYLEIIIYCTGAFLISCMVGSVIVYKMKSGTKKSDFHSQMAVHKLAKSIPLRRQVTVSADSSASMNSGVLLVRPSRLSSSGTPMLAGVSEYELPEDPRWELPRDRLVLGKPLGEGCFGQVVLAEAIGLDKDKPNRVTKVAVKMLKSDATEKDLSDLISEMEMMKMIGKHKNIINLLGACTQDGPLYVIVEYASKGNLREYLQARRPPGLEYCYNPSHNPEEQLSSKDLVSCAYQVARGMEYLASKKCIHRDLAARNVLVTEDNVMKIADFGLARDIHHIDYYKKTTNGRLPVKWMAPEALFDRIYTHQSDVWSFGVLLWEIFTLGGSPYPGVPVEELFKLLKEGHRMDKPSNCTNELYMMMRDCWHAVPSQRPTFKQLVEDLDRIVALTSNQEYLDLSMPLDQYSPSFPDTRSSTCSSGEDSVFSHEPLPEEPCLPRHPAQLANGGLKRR
T7 sequence (Q16816 whole entry): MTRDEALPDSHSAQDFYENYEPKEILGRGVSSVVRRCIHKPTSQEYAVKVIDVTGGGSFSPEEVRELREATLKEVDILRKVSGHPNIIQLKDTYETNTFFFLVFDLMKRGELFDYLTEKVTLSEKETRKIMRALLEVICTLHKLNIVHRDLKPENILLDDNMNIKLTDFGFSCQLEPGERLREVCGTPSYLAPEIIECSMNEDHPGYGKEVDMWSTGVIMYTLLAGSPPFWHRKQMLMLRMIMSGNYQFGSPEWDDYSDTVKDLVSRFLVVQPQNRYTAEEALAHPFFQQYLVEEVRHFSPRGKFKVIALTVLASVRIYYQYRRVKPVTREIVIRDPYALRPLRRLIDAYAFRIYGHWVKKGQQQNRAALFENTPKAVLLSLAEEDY

O=C(Nc1ccc(Oc2ncnc3[nH]ncc23)cc1)Nc1ccc(Cl)c(C(F)(F)F)c1 [Compound 1, 1-(4-(1H-pyrazolo[3,4-d]pyrimidin-4-yloxy)phenyl)-3-(4-chloro-3-(trifluoromethyl)phenyl)urea]
IC50 [1]: > 10 µM

CC(C)(C)c1cc(NC(=O)Nc2ccc(Oc3ncnc4[nH]ncc34)c(F)c2)no1 [SKLB-677, 1-(4-(1H-pyrazolo[3,4-d]pyrimidin-4-yloxy)-3-fluorophenyl)-3-(5-tert-butylisoxazol-3-yl)urea]
remaining binding at 10 µM [2]: 79% | remaining binding at 10 µM [3]: 87% | remaining binding at 10 µM [4]: 100% | Kd [5]: > 10 µM | remaining binding at 10 µM [6]: 68% | remaining binding at 10 µM [7]: 85% | remaining binding at 10 µM [8]: 85% | Kd [9]: > 10 µM | remaining binding at 10 µM [10]: 64% | remaining binding at 10 µM [11]: 42% | remaining binding at 10 µM [12]: 90% | remaining binding at 10 µM [13]: 2.3% | expression of β-catenin target genes [14]: considerably decrease | remaining binding at 10 µM [15]: 0.05% | remaining binding at 10 µM [16]: 100% | remaining binding at 10 µM [17]: 61% | remaining binding at 10 µM [18]: 0% | remaining binding at 10 µM [19]: 1.7% | remaining binding at 10 µM [20]: 4.8% | remaining binding at 10 µM [21]: 0.1% | remaining binding at 10 µM [22]: 50% | remaining binding at 10 µM [23]: 71% | remaining binding at 10 µM [24]: 0% | remaining binding at 10 µM [25]: 31% | remaining binding at 10 µM [26]: 12% | remaining binding at 10 µM [27]: 46% | remaining binding at 10 µM [28]: 24% | remaining binding at 10 µM [29]: 1.4% | remaining binding at 10 µM [30]: 2% | remaining binding at 10 µM [31]: 100% | remaining binding at 10 µM [32]: 100% | remaining binding at 10 µM [33]: 48% | remaining binding at 10 µM [34]: 21% | remaining binding at 10 µM [35]: 68% | remaining binding at 10 µM [36]: 75% | remaining binding at 10 µM [37]: 71%
